According to publication PMC8318001, “Terpene Synthase-b and Terpene Synthase-e/f Genes Produce Monoterpenes for Phalaenopsis bellina Floral Scent” (Frontiers in Plant Science, 2021):

Legend:
Test in all cases: GC-MS of reaction products
Assay type in all cases: biochemical
Details in all cases: 2.5 uM GDP, HEPES pH 7.4, 0.1 M KCl, 10 mM MgCl2, 10 mM DTT, 10% glycerol, 30 °C, 1 h
PbTPS9 = biological target: T1, PbTPS9 (Phalaenopsis bellina, UniProt A0A8F9U9F3)
T1 construct: gene TPS9; ORF in pET-28b, His-tag at N- and C-termini, E. coli C41 (DE3) pLysS, TALON purified; tag removal not mentioned
T1 sequence (A0A8F9U9F3 1-598 limits assumed): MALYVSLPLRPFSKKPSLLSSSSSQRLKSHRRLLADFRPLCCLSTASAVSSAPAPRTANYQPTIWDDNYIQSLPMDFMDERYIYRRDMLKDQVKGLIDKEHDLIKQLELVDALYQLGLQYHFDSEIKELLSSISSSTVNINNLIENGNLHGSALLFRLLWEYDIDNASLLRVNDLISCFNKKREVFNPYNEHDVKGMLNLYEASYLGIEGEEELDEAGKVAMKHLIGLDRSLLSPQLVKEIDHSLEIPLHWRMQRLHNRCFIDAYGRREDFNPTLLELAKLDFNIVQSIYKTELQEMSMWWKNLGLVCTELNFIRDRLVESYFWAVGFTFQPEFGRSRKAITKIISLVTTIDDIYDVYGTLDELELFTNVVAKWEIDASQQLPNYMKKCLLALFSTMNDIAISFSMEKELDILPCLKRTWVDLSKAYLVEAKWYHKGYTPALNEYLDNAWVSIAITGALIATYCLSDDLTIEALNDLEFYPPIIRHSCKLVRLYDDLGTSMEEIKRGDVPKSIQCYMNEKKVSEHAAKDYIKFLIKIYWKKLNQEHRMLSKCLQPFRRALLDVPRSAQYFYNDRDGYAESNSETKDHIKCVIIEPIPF

PbTPS4 = biological target: T2, PbTPS4 (Phalaenopsis bellina, UniProt A0A8F9U8Q1)
T2 construct: gene TPS4; ORF in pET-28b, His-tag at N- and C-termini, E. coli C41 (DE3) pLysS, TALON purified; tag removal not mentioned
T2 sequence (A0A8F9U8Q1 1-868): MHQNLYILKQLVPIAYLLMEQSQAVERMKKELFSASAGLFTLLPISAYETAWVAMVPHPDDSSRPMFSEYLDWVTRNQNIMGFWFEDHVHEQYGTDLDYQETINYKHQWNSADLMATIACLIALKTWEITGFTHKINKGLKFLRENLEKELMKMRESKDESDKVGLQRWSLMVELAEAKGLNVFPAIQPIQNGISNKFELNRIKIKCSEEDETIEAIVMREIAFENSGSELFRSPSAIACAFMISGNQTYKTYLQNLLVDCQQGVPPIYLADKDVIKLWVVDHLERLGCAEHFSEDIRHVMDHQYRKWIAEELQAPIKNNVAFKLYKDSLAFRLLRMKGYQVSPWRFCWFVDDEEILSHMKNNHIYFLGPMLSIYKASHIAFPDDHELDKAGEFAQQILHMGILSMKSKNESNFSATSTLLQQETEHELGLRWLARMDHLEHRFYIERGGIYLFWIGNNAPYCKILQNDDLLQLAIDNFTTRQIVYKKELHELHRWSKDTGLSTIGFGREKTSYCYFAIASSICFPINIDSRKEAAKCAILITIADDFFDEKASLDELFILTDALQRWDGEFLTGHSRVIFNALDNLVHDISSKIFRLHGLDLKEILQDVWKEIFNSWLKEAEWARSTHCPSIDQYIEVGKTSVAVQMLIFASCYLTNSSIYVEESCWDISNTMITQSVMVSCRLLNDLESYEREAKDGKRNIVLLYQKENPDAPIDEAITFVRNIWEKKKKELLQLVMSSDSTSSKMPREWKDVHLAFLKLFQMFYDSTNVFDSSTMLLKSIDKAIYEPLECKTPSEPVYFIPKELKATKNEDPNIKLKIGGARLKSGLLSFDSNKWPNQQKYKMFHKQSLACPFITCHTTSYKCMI

PbTPS5 = biological target: T3, PbTPS5 (Phalaenopsis bellina, UniProt A0A8F9UAD9)
T3 construct: gene TPS5; tag removal not mentioned
T3 sequence (A0A8F9UAD9 1-605 limits assumed): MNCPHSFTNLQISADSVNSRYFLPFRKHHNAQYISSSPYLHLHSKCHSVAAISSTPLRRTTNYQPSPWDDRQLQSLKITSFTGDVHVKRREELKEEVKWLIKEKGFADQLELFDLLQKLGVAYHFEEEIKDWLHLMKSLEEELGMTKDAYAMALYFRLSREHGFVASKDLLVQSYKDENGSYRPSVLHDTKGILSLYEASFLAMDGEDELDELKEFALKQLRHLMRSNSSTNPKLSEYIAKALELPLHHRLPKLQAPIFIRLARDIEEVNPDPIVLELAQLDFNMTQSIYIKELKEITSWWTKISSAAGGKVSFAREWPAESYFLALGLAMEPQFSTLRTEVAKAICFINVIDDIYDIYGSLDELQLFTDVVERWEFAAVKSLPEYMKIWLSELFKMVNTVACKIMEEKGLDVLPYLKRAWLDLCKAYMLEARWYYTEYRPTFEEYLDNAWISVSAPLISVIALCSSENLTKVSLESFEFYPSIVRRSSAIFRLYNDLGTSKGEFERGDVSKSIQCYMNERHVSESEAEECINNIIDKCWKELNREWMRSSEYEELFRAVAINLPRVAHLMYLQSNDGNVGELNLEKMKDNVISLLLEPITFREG

PbTPS3 = biological target: T4, PbTPS3 (Phalaenopsis bellina, UniProt A0A8F9U8Q4)
T4 construct: gene TPS3; ORF in pET-28b, His-tag at N- and C-termini, E. coli C41 (DE3) pLysS, TALON purified; tag removal not mentioned
T4 sequence (A0A8F9U8Q4 1-769): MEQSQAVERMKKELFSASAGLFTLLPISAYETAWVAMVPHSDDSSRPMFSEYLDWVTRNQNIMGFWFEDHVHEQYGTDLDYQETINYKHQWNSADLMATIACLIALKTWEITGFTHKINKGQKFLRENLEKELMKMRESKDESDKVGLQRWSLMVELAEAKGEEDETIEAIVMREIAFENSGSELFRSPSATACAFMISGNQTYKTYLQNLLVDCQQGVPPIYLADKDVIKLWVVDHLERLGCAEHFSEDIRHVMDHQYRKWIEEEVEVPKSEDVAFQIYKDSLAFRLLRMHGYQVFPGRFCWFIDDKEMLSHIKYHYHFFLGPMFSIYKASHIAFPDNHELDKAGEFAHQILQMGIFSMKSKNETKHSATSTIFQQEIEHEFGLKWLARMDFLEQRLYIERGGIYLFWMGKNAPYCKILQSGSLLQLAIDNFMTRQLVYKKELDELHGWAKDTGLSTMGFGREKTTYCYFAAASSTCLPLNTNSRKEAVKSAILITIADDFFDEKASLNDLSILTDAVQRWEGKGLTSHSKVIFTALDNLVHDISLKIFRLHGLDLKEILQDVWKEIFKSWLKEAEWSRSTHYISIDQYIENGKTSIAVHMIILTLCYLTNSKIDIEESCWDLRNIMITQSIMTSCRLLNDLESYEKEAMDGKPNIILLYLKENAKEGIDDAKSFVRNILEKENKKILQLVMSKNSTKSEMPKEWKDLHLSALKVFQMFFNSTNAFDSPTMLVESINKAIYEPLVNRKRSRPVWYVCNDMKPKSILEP

CC(C)=CCC/C(C)=C/COP(=O)(O)OP(=O)(O)O [GDP]
GC-MS of reaction products (PbTPS9): The product of PbTPS9 was geraniol (Figure 5B)
GC-MS of reaction products (PbTPS4): PbTPS4 was a linalool synthase and used GDP as the substrate (Figure 6B)
GC-MS of reaction products (PbTPS5): Geraniol was detected as the main product catalyzed by PbTPS5 (Figure 5A)
GC-MS of reaction products (PbTPS3): PbTPS3 was a dual enzyme as a linalool/(β)-cis-ocimene synthase (Figure 6A)
